Results as given in ChEMBL document CHEMBL1149951, “Antileukaemic properties of 12-hydroxydaphnetoxin derivatives” (Bioorg Med Chem Lett, 1994).
The source made the active and inactive calls. The calls are words filed in the database; no cut-off is given here.

How the values were obtained:
Mus musculus [1] = assay: In vivo activity against mice infected with murine p388 lymphocytic leukemia cells at a ip dosage range of 0.05-1.6 mg/kg; Inactive; assay type: functional, organism-based
Mus musculus [2] = assay: In vivo activity against mice infected with murine p388 lymphocytic leukemia cells at a ip dose of 0.4 mg/kg; assay type: functional; details: route intraperitoneal
[3] = In vivo activity against mice infected with murine p388 lymphocytic leukemia cells at a ip dose of 0.8 mg/kg; Toxic; assay type: toxicity, organism-based; parameters: dose 0.8 mg/kg, route intraperitoneal; details: mouse
Mus musculus [4] = assay: In vivo activity against mice infected with murine p388 lymphocytic leukemia cells at a ip dose of 0.05 mg/kg; assay type: functional; details: route intraperitoneal
Mus musculus [5] = assay: In vivo activity against mice infected with murine p388 lymphocytic leukemia cells at a ip dose of 0.2 mg/kg; assay type: functional; details: route intraperitoneal
Mus musculus [6] = assay: In vivo activity against mice infected with murine p388 lymphocytic leukemia cells at a ip dose of 0.1 mg/kg; assay type: functional; details: route intraperitoneal
[7] = In vivo activity against mice infected with mice infected with murine p388 lymphocytic leukemia cells at a ip dose of 0.4 mg/kg; Toxic; assay type: toxicity, organism-based; parameters: dose 0.4 mg/kg, route intraperitoneal; details: mouse
[8] = In vivo activity against mice infected with murine p388 lymphocytic leukemia cells at a ip dose of 0.4 mg/kg; Toxic; assay type: toxicity, organism-based; parameters: dose 0.4 mg/kg, route intraperitoneal; details: mouse
[9] = In vivo activity was against mice infected with murine p388 lymphocytic leukemia cells at a ip dose of 0.8 mg/kg; Toxic; assay type: toxicity, organism-based; parameters: dose 0.8 mg/kg, route intraperitoneal; details: mouse
Mus musculus [10] = assay: In vivo activity against mice infected with murine p388 lymphocytic leukemia cells at a ip dose of 0.8 mg/kg; assay type: functional; details: route intraperitoneal
Mus musculus [11] = assay: In vivo activity against mice infected with murine p388 lymphocytic leukemia cells at a ip dose of 0.2 mg/kg; Toxic; assay type: functional, organism-based; parameters: dose 0.2 mg/kg

Question: Which ILS (Mus musculus [1]) does the source give for C=C(C)C12OC3(c4ccccc4)OC1[C@@H]1[C@@H]4O[C@@]45COC(C)(C)O[C@H]5[C@]4(O)C(=O)C=C[C@@]4(C)C1(O3)[C@H](C)[C@H]2OC(=O)CCCCCCCCC (stereo partly drawn) here?
Answer: inactive

Question: With C=C(C)C12OC3(c4ccccc4)OC1[C@@H]1[C@@H]4O[C@]4(CO)[C@@H](O)[C@]4(O)C(=O)C=C[C@@]4(C)C1(O3)[C@H](C)[C@H]2O (stereo partly drawn) as the compound, how does the ILS (Mus musculus [1]) read?
Answer: inactive

Question: With CC(C)C12OC3(c4ccccc4)OC1[C@@H]1[C@@H]4O[C@]4(CO)[C@@H](O)[C@]4(O)C(=O)C=C[C@@]4(C)C1(O3)[C@H](C)[C@H]2OC(=O)CCCCc1ccccc1 (stereo partly drawn) as the compound, how does the ILS at 0.4 mg/kg (Mus musculus [2]) read?
Answer: 43%

Question: What about the ILS [3] of the same compound?
Answer: Toxic

Question: What about the ILS at 0.05 mg/kg (Mus musculus [4]) of the same compound?
Answer: < 20%

Question: And the ILS at 0.2 mg/kg (Mus musculus [5])?
Answer: 43%

Question: What about the ILS at 0.1 mg/kg (Mus musculus [6]) of the same compound?
Answer: < 20%

Question: For C=C(C)C12OC3(c4ccccc4)OC1[C@@H]1[C@@H]4O[C@@]45COC(C)(C)O[C@H]5[C@]4(O)C(=O)C=C[C@@]4(C)C1(O3)[C@H](C)[C@H]2O (stereo partly drawn), which ILS (Mus musculus [1]) is on record?
Answer: inactive

Question: For C=C(C)C12OC3(c4ccccc4)OC1[C@@H]1[C@@H]4O[C@]4(CO)[C@@H](O)[C@]4(O)C(=O)C=C[C@@]4(C)C1(O3)[C@H](C)[C@H]2OC(=O)/C=C/c1ccccc1 (stereo partly drawn), which ILS [3] is on record?
Answer: Toxic

Question: What about the ILS at 0.05 mg/kg (Mus musculus [4]) of the same compound?
Answer: < 20%

Question: What about the ILS at 0.2 mg/kg (Mus musculus [5]) of the same compound?
Answer: 73%

Question: What about the ILS at 0.1 mg/kg (Mus musculus [6]) of the same compound?
Answer: 60%

Question: What about the ILS [7] of the same compound?
Answer: Toxic

Question: For C=C(C)C12OC3(c4ccccc4)OC1[C@@H]1[C@@H]4O[C@]4(CO)[C@@H](O)[C@]4(O)C(=O)C=C[C@@]4(C)C1(O3)[C@H](C)[C@H]2OC(=O)/C=C/C=C/c1ccccc1 (stereo partly drawn), which ILS [8] is on record?
Answer: Toxic

Question: And the ILS at 0.05 mg/kg (Mus musculus [4])?
Answer: 33%

Question: And the ILS at 0.2 mg/kg (Mus musculus [5])?
Answer: 67%

Question: What about the ILS [9] of the same compound?
Answer: Toxic

Question: What about the ILS at 0.1 mg/kg (Mus musculus [6]) of the same compound?
Answer: 33%

Question: With C=C(C)C12OC3(c4ccccc4)OC1[C@@H]1[C@@H]4O[C@]4(CO)[C@@H](O)[C@]4(O)C(=O)C=C[C@@]4(C)C1(O3)[C@H](C)[C@H]2OC(=O)c1ccccc1 (stereo partly drawn) as the compound, how does the ILS at 0.4 mg/kg (Mus musculus [2]) read?
Answer: 40%

Question: And the ILS [3]?
Answer: Toxic

Question: What about the ILS at 0.05 mg/kg (Mus musculus [4]) of the same compound?
Answer: < 20%

Question: And the ILS at 0.2 mg/kg (Mus musculus [5])?
Answer: 32%

Question: And the ILS at 0.1 mg/kg (Mus musculus [6])?
Answer: < 20%

Question: Which ILS at 0.4 mg/kg (Mus musculus [2]) does the source give for CC(C)C12OC3(c4ccccc4)OC1[C@@H]1[C@@H]4O[C@]4(CO)[C@@H](O)[C@]4(O)C(=O)CC[C@@]4(C)C1(O3)[C@H](C)[C@H]2OC(=O)CCc1ccccc1 (stereo partly drawn) here?
Answer: 25%

Question: What about the ILS at 0.05 mg/kg (Mus musculus [4]) of the same compound?
Answer: < 20%

Question: And the ILS at 0.2 mg/kg (Mus musculus [5])?
Answer: < 20%

Question: And the ILS at 0.1 mg/kg (Mus musculus [6])?
Answer: < 20%

Question: What about the ILS at 0.8 mg/kg (Mus musculus [10]) of the same compound?
Answer: 30%

Question: Which ILS (Mus musculus [1]) does the source give for C=C(C)C12OC3(c4ccccc4)OC1[C@@H]1[C@@H]4O[C@@]45COC(C)(C)O[C@H]5[C@]4(O)C(=O)C=C[C@@]4(C)C1(O3)[C@H](C)[C@H]2OC(=O)/C=C/C=C/c1ccccc1 (stereo partly drawn) here?
Answer: inactive

Question: Which ILS (Mus musculus [1]) does the source give for C=C(C)C12OC3(c4ccccc4)OC1[C@@H]1[C@@H]4O[C@@]45COC(C)(C)O[C@H]5[C@]4(O)C(=O)C=C[C@@]4(C)C1(O3)[C@H](C)[C@H]2OC(=O)/C=C/c1ccccc1 (stereo partly drawn) here?
Answer: inactive

Question: Which ILS [8] does the source give for C=C(C)C12OC3(c4ccccc4)OC1[C@@H]1[C@@H]4O[C@]4(CO)[C@@H](O)[C@]4(O)C(=O)C(C)=C[C@H]4C1(O3)[C@H](C)[C@H]2OC(=O)/C=C/C=C/C=C/CCC (stereo partly drawn) [GNIDITRIN] here?
Answer: Toxic

Question: And the ILS [3]?
Answer: Toxic

Question: And the ILS at 0.05 mg/kg (Mus musculus [4])?
Answer: 44%

Question: And the ILS at 0.1 mg/kg (Mus musculus [6])?
Answer: 68%

Question: What about the ILS (Mus musculus [11]) of the same compound?
Answer: Toxic

Question: Which ILS at 0.4 mg/kg (Mus musculus [2]) does the source give for CC(C)C12OC3(c4ccccc4)OC1[C@@H]1[C@@H]4O[C@]4(CO)[C@@H](O)[C@]4(O)C(=O)C=C[C@@]4(C)C1(O3)[C@H](C)[C@H]2OC(=O)CCc1ccccc1 (stereo partly drawn) here?
Answer: 40%

Question: And the ILS [3]?
Answer: Toxic

Question: What about the ILS at 0.05 mg/kg (Mus musculus [4]) of the same compound?
Answer: < 20%

Question: What about the ILS at 0.2 mg/kg (Mus musculus [5]) of the same compound?
Answer: 38%

Question: And the ILS at 0.1 mg/kg (Mus musculus [6])?
Answer: < 20%

Question: With C=C(C)C12OC3(c4ccccc4)OC1[C@@H]1[C@@H]4O[C@@]45COC(C)(C)O[C@H]5[C@]4(O)C(=O)C=C[C@@]4(C)C1(O3)[C@H](C)[C@H]2OC(=O)/C=C/C=C/CCCCC (stereo partly drawn) as the compound, how does the ILS (Mus musculus [1]) read?
Answer: inactive

Question: Which ILS at 0.4 mg/kg (Mus musculus [2]) does the source give for CC(C)C12OC3(c4ccccc4)OC1[C@@H]1[C@@H]4O[C@]4(CO)[C@@H](O)[C@]4(O)C(=O)CC[C@@]4(C)C1(O3)[C@H](C)[C@H]2OC(=O)CCCCCCCCc1ccccc1 (stereo partly drawn) here?
Answer: 25%

Question: And the ILS at 0.05 mg/kg (Mus musculus [4])?
Answer: < 20%

Question: What about the ILS at 0.2 mg/kg (Mus musculus [5]) of the same compound?
Answer: < 20%

Question: And the ILS at 0.1 mg/kg (Mus musculus [6])?
Answer: < 20%

Question: And the ILS at 0.8 mg/kg (Mus musculus [10])?
Answer: 25%

Question: For C=C(C)C12OC3(c4ccccc4)OC1[C@@H]1[C@@H]4O[C@@]45COC(C)(C)O[C@H]5[C@]4(O)C(=O)C=C[C@@]4(C)C1(O3)[C@H](C)[C@H]2OC(=O)/C=C/C=C/C=C/CCC (stereo partly drawn), which ILS (Mus musculus [1]) is on record?
Answer: inactive

Question: Which ILS at 0.4 mg/kg (Mus musculus [2]) does the source give for CCCCCCCCCC(=O)O[C@@H]1[C@@H](C)C23OC4(c5ccccc5)OC([C@@H]2[C@@H]2O[C@]2(CO)[C@@H](O)[C@]2(O)C(=O)C=C[C@@]32C)C1(C(C)C)O4 (stereo partly drawn) here?
Answer: 30%

Question: What about the ILS at 0.05 mg/kg (Mus musculus [4]) of the same compound?
Answer: < 20%

Question: What about the ILS at 0.2 mg/kg (Mus musculus [5]) of the same compound?
Answer: < 20%

Question: And the ILS at 0.1 mg/kg (Mus musculus [6])?
Answer: < 20%

Question: What about the ILS at 0.8 mg/kg (Mus musculus [10]) of the same compound?
Answer: 27%

Question: With C=C(C)C12OC3(c4ccccc4)OC1[C@@H]1[C@@H]4O[C@]4(CO)[C@@H](O)[C@]4(O)C(=O)C=C[C@@]4(C)C1(O3)[C@H](C)[C@H]2OC(=O)CCCCCCCCC (stereo partly drawn) as the compound, how does the ILS at 0.4 mg/kg (Mus musculus [2]) read?
Answer: 42%

Question: And the ILS at 0.05 mg/kg (Mus musculus [4])?
Answer: < 20%

Question: What about the ILS at 0.2 mg/kg (Mus musculus [5]) of the same compound?
Answer: < 20%

Question: And the ILS at 0.1 mg/kg (Mus musculus [6])?
Answer: < 20%

Question: And the ILS at 0.8 mg/kg (Mus musculus [10])?
Answer: 43%

Question: Which ILS [8] does the source give for C=C(C)C12OC3(c4ccccc4)OC1[C@@H]1[C@@H]4O[C@]4(CO)[C@@H](O)[C@]4(O)C(=O)C=C[C@@]4(C)C1(O3)[C@H](C)[C@H]2OC(=O)/C=C/C=C/CCCCC (stereo partly drawn) here?
Answer: Toxic

Question: And the ILS [3]?
Answer: Toxic

Question: What about the ILS at 0.05 mg/kg (Mus musculus [4]) of the same compound?
Answer: 33%

Question: And the ILS at 0.2 mg/kg (Mus musculus [5])?
Answer: 42%

Question: And the ILS at 0.1 mg/kg (Mus musculus [6])?
Answer: 33%

Question: Which ILS (Mus musculus [1]) does the source give for C=C(C)C12OC3(c4ccccc4)OC1[C@@H]1[C@@H]4O[C@@]45COC(C)(C)O[C@H]5[C@]4(O)C(=O)C=C[C@@]4(C)C1(O3)[C@H](C)[C@H]2OC(=O)c1ccccc1 (stereo partly drawn) here?
Answer: inactive

Question: What does the source list for CC(C)C12OC3(c4ccccc4)OC1[C@@H]1[C@@H]4O[C@]4(CO)[C@@H](O)[C@]4(O)C(=O)CC[C@@]4(C)C1(O3)[C@H](C)[C@H]2OC(=O)CCCCc1ccccc1 (stereo partly drawn)?
Answer: ILS at 0.4 mg/kg (Mus musculus [2]): 29%; ILS at 0.05 mg/kg (Mus musculus [4]): < 20%; ILS at 0.2 mg/kg (Mus musculus [5]): < 20%; ILS at 0.1 mg/kg (Mus musculus [6]): < 20%; ILS at 0.8 mg/kg (Mus musculus [10]): 27%

Question: Which results are given for CC(C)C12OC3(c4ccccc4)OC1[C@@H]1[C@@H]4O[C@]4(CO)[C@@H](O)[C@]4(O)C(=O)C=C[C@@]4(C)C1(O3)[C@H](C)[C@H]2OC(=O)c1ccccc1 (stereo partly drawn)?
Answer: ILS at 0.4 mg/kg (Mus musculus [2]): 48%; ILS [3]: Toxic; ILS at 0.05 mg/kg (Mus musculus [4]): < 20%; ILS at 0.2 mg/kg (Mus musculus [5]): 42%; ILS at 0.1 mg/kg (Mus musculus [6]): 30%
